Reference: article PMC3259267 (Bioorganic & medicinal chemistry, 2011)

What was measured:
[1] = system: panel of 68 radioligand receptor assays; experiment: LeadProfilingScreen radioligand binding panel; settings: 10 uM; none positive, mostly <10%
[2] = Plasma concentration and blood brain barrier penetration; settings: G93A SOD1 transgenic mice, single ip 50 mg/kg
[3] = Caco-2 monolayer permeability; settings: human
ALS = ALS patients, on average; ref [1]; cited from earlier work

With `O=C1CC(=O)CC(c2cc(C(F)(F)F)cc(C(F)(F)F)c2)C1` [Compound 26] the “inhibition in all 68 radioligand receptor assays” value [1] was < 20% and the “period of stable plasma concentrations” value [2] was 3 to 12 h.
In the case of `CC(Oc1cc(C(F)(F)F)cc(C(F)(F)F)c1)C1CC(=O)CC(=O)C1` (stereo not shown) [Compound 73], the Papp A→B at 2 h, 50 μM [3] is reported as 24.8 ×10⁻⁶ cm/s.
For `Nc1nc2ccc(OC(F)(F)F)cc2s1` [riluzole], the extension of life (ALS) is listed as 2–3 months.
